# Reference: BindingDB's records for doi:10.1016/j.bmcl.2006.08.044 (Glaxosmithkline, 2006)
# pKi: −log10 of the molar value.
# Biological target: Integrin alpha-4/beta-1 [T112H] (Homo sapiens, UniProt P05556+P13612, T112H)
# Test: Jurkat J6 Scintillation Proximity Assay
# Protocol: J6 cells (1 million cells/well) were allowed to coat wheat germ agglutinin coated SPA beads (Amersham, 1 mg/well) in assay buffer. Tritiated 3H Standard Compound A and test compounds were dissolved in an appropriate solvent and diluted in assay buffer. Data are presented as mean pKi.
row,pKi,SMILES
1,9.10,"Cc1ccccc1NC(=O)Nc1ccc(-c2cccn(Cc3ccc([C@H](C)CC(=O)O)cc3)c2=O)c(Cl)c1 [(3R)-3-(4-{[3-(2-chloro-4-{[(2-methylphenyl)carbamoyl]amino}phenyl)-2-oxo-1,2-dihydropyridin-1-yl]methyl}phenyl)butanoic acid]"
2,8.60,"Cc1ccccc1NC(=O)Nc1ccc(-c2cccn(Cc3ccc([C@H](C)CC(=O)O)cc3)c2=O)c(C)c1 [(3R)-3-(4-{[3-(2-methyl-4-{[(2-methylphenyl)carbamoyl]amino}phenyl)-2-oxo-1,2-dihydropyridin-1-yl]methyl}phenyl)butanoic acid]"
3,9.00,"Cc1ccccc1NC(=O)Nc1ccc(-c2cccn(Cc3ccc([C@H](C)CC(=O)O)cc3)c2=O)cc1Cl [(3R)-3-(4-{[3-(3-chloro-4-{[(2-methylphenyl)carbamoyl]amino}phenyl)-2-oxo-1,2-dihydropyridin-1-yl]methyl}phenyl)butanoic acid]"
4,8.70,"CCOc1cc(-c2cccn(Cc3ccc([C@H](C)CC(=O)O)cc3)c2=O)ccc1NC(=O)Nc1ccccc1C [(3R)-3-(4-{[3-(3-ethoxy-4-{[(2-methylphenyl)carbamoyl]amino}phenyl)-2-oxo-1,2-dihydropyridin-1-yl]methyl}phenyl)butanoic acid]"
5,8.20,"CCc1cc(-c2cccn(Cc3ccc([C@H](C)CC(=O)O)cc3)c2=O)ccc1NC(=O)Nc1ccccc1C [(3R)-3-(4-{[3-(3-ethyl-4-{[(2-methylphenyl)carbamoyl]amino}phenyl)-2-oxo-1,2-dihydropyridin-1-yl]methyl}phenyl)butanoic acid]"
6,9.00,"Cc1ccccc1NC(=O)Nc1ccc(-c2cccn(Cc3ccc([C@H](C)CC(=O)O)cc3)c2=O)cc1C [(3R)-3-(4-{[3-(3-methyl-4-{[(2-methylphenyl)carbamoyl]amino}phenyl)-2-oxo-1,2-dihydropyridin-1-yl]methyl}phenyl)butanoic acid]"
7,8.40,"Cc1ccccc1NC(=O)Nc1ccc(-c2cccn(Cc3ccc([C@H](C)CC(=O)O)cc3)c2=O)cc1OC(F)(F)F [(3R)-3-(4-{[3-(4-{[(2-methylphenyl)carbamoyl]amino}-3-(trifluoromethoxy)phenyl)-2-oxo-1,2-dihydropyridin-1-yl]methyl}phenyl)butanoic acid]"
8,7.60,"Cc1ccccc1NC(=O)Nc1ccc(-c2cccn(Cc3ccc([C@@H](C)CC(=O)O)cc3)c2=O)c(Cl)c1 [(3S)-3-(4-{[3-(2-chloro-4-{[(2-methylphenyl)carbamoyl]amino}phenyl)-2-oxo-1,2-dihydropyridin-1-yl]methyl}phenyl)butanoic acid]"
9,7.70,"Cc1ccccc1NC(=O)Nc1ccc(-c2cccn(Cc3ccc([C@@H](C)CC(=O)O)cc3)c2=O)c(C)c1 [(3S)-3-(4-{[3-(2-methyl-4-{[(2-methylphenyl)carbamoyl]amino}phenyl)-2-oxo-1,2-dihydropyridin-1-yl]methyl}phenyl)butanoic acid]"
10,8.70,"Cc1ccccc1NC(=O)Nc1ccc(-c2cccn(Cc3ccc([C@@H](C)CC(=O)O)cc3)c2=O)cc1Cl [(3S)-3-(4-{[3-(3-chloro-4-{[(2-methylphenyl)carbamoyl]amino}phenyl)-2-oxo-1,2-dihydropyridin-1-yl]methyl}phenyl)butanoic acid]"
11,8.30,"CCOc1cc(-c2cccn(Cc3ccc([C@@H](C)CC(=O)O)cc3)c2=O)ccc1NC(=O)Nc1ccccc1C [(3S)-3-(4-{[3-(3-ethoxy-4-{[(2-methylphenyl)carbamoyl]amino}phenyl)-2-oxo-1,2-dihydropyridin-1-yl]methyl}phenyl)butanoic acid]"
12,7.30,"CCc1cc(-c2cccn(Cc3ccc([C@@H](C)CC(=O)O)cc3)c2=O)ccc1NC(=O)Nc1ccccc1C [(3S)-3-(4-{[3-(3-ethyl-4-{[(2-methylphenyl)carbamoyl]amino}phenyl)-2-oxo-1,2-dihydropyridin-1-yl]methyl}phenyl)butanoic acid]"
13,8.60,"Cc1ccccc1NC(=O)Nc1ccc(-c2cccn(Cc3ccc([C@@H](C)CC(=O)O)cc3)c2=O)cc1C [(3S)-3-(4-{[3-(3-methyl-4-{[(2-methylphenyl)carbamoyl]amino}phenyl)-2-oxo-1,2-dihydropyridin-1-yl]methyl}phenyl)butanoic acid]"
14,7.70,"Cc1ccccc1NC(=O)Nc1ccc(-c2cccn(Cc3ccc([C@@H](C)CC(=O)O)cc3)c2=O)cc1OC(F)(F)F [(3S)-3-(4-{[3-(4-{[(2-methylphenyl)carbamoyl]amino}-3-(trifluoromethoxy)phenyl)-2-oxo-1,2-dihydropyridin-1-yl]methyl}phenyl)butanoic acid]"
